We go through 21 compounds from patent US9802918B2, “Pyridineamine compounds useful as Pim kinase inhibitors” (Incyte Corporation, priority 2015, dated 2017).

What all share (type): biochemical
One assay concerns the target Pim-2 (Homo sapiens (Human), UniProt Q9P1W9). Put plainly: Pim-2 kinase assay. To be noted: 1 mM ATP; read-out: Pim2 IC50. Put shortly:
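Pim-2 (1 nM) with fluorescein-CREBtide ([…]) and 1 mM ATP in Tris pH 7.5, MgCl2, DTT buffer, 2 h at 25 °C. Stopped with EDTA plus Tb-anti-CREB pSer133 antibody; phosphorylation read by TR-FRET after 30 min.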

A further assay concerns the target Pim-1 (Homo sapiens (Human), UniProt P11309). Put plainly: Pim-1 kinase assay. The note with it: 1 mM ATP; read-out: Pim1 IC50. As to the method:
Supplementation of the STOP buffer with beads and stopping the reactions were done under reduced light. Prior to the stopping reactions STOP buffer with beads was preincubated for 1 h in the dark at room temperature. After stopping the reactions, plates were incubated for 1 h in the dark at room temperature before reading on a PHERAstar FS plate reader (BMG Labtech) under reduced light.

A further assay concerns the target Pim-3 (Homo sapiens (Human), UniProt Q86V86). Put plainly: Pim-3 kinase assay. To be noted: 1 mM ATP; read-out: Pim3 IC50. The procedure, abridged:
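Human Pim-3 at 1.25 pM phosphorylated […] biotin-BAD peptide with 1 mM ATP for 1 h at 25° C, in pH 7.5 Tris buffer with 5 mM MgCl2 and 5 mM DTT. Reactions were stopped with EDTA buffer containing phospho-Bad (Ser112) antibody and AlphaScreen donor/acceptor beads. Plates were read after 1 h dark incubation at room temperature.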

Pim-1, sequence (P11309 whole entry): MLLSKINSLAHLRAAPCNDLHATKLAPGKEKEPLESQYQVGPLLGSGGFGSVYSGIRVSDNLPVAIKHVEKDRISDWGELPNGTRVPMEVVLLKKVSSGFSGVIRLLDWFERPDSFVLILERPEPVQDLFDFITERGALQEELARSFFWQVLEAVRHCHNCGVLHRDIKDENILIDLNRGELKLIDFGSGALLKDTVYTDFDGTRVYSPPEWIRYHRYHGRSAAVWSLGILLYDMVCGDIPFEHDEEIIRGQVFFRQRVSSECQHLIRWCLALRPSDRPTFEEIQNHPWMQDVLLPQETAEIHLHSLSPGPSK
Pim-2, sequence (Q9P1W9 whole entry): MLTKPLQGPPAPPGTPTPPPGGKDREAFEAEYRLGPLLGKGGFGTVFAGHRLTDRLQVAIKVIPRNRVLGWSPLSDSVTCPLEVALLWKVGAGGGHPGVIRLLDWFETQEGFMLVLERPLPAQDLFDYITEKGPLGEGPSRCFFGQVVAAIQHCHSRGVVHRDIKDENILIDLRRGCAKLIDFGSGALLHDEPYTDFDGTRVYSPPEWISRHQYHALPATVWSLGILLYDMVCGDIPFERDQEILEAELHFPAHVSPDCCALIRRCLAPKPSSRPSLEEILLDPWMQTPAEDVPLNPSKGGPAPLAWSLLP

As for `C[C@H]1CN(c2ccncc2NCc2ccc(F)c(-c3c(F)cc(O[C@@H]4CCOC4)cc3F)n2)C[C@@H](N)[C@@H]1O` [Example 73, (3R,4R,5S)-3-Amino-1-(3-{[(6-{2,6-difluoro-4-[(3R)-tetrahydrofuran-3-yloxy]phenyl}-5-fluoropyridin-2-yl)methyl]amino}pyridin-4-yl)-5-methylpiperidin-4-ol], the IC50 (as a rule, the concentration that inhibits the measured activity by half) on Pim-2 was at most 100 nM; at Pim-1 it was below 10 nM; at Pim-3 it was at most 10 nM.
Regarding `C[C@@H]1C[C@H](N)CN(c2ccncc2NCc2ccc(F)c(-c3c(F)cc(O[C@@H]4CCOC4)cc3F)n2)C1` [Example 74, 4-[(3S,5R)-3-Amino-5-methylpiperidin-1-yl]-N-[(6-{2,6-difluoro-4-[(3R)-tetrahydrofuran-3-yloxy]phenyl}-5-fluoropyridin-2-yl)methyl]pyridin-3-amine], the IC50 at Pim-2 was at most 100 nM; on Pim-1, below 10 nM; on Pim-3, at most 10 nM.
As for `C[C@H]1CN(c2ccncc2NCc2ccc(F)c(-c3c(F)cc(O[C@H]4CCOC4)cc3F)n2)C[C@@H](N)[C@@H]1O` [Example 75, (3R,4R,5S)-3-Amino-1-(3-{[(6-{2,6-difluoro-4-[(3S)-tetrahydrofuran-3-yloxy]phenyl}-5-fluoropyridin-2-yl)methyl]amino}pyridin-4-yl)-5-methylpiperidin-4-ol], the results for the IC50 at Pim-2, at Pim-1 and at Pim-3 were at most 100 nM, below 10 nM and at most 10 nM, respectively.
Regarding `C[C@@H]1C[C@H](N)CN(c2ccncc2NCc2ccc(F)c(-c3c(F)cc(O[C@H]4CCOC4)cc3F)n2)C1` [Example 76, 4-[(3S,5R)-3-Amino-5-methylpiperidin-1-yl]-N-[(6-{2,6-difluoro-4-[(3S)-tetrahydrofuran-3-yloxy]phenyl}-5-fluoropyridin-2-yl)methyl]pyridin-3-amine], the figures for the concentration for half-maximal inhibition (IC50) on Pim-2, on Pim-1 and on Pim-3 were at most 100 nM, below 10 nM and at most 10 nM, respectively.
Take `C[C@H]1CN(c2ccncc2NCc2ccc(F)c(-c3c(F)cc(OC4CCOCC4)cc3F)n2)C[C@@H](N)[C@@H]1O` [Example 77, (3R,4R,5S)-3-Amino-1-{3-[({6-[2,6-difluoro-4-(tetrahydro-2H-pyran-4-yloxy)phenyl]-5-fluoropyridin-2-yl}methyl)amino]pyridin-4-yl}-5-methylpiperidin-4-ol]: the IC50 on Pim-2 is at most 100 nM; on Pim-1 it was below 10 nM; on Pim-3 it was at most 10 nM.
Regarding `C[C@@H]1C[C@H](N)CN(c2ccncc2NCc2ccc(F)c(-c3c(F)cc(OC4CCOCC4)cc3F)n2)C1` [Example 78, 4-[(3S,5R)-3-Amino-5-methylpiperidin-1-yl]-N-({6-[2,6-difluoro-4-(tetrahydro-2H-pyran-4-yloxy)phenyl]-5-fluoropyridin-2-yl}methyl)pyridin-3-amine], the IC50 at Pim-2 is at most 100 nM; on Pim-1, below 10 nM; on Pim-3, at most 10 nM.
Turning to `COc1cc(F)c(-c2nc(CNc3cnccc3N3C[C@@H](N)[C@H](O)[C@@H](C)C3)ccc2F)c(F)c1` [Example 82, (3R,4R,5S)-3-Amino-1-[3-({[6-(2,6-difluoro-4-methoxyphenyl)-5-fluoropyridin-2-yl]methyl}amino)pyridin-4-yl]-5-methylpiperidin-4-ol], the IC50 at Pim-2 was at most 100 nM; at Pim-1 it was below 10 nM; on Pim-3, at most 10 nM.
Consider `COc1cc(F)c(-c2nc(CNc3cnccc3N3C[C@H](C)C[C@H](N)C3)ccc2F)c(F)c1` [Example 83, 4-[(3S,5R)-3-Amino-5-methylpiperidin-1-yl]-N-{[6-(2,6-difluoro-4-methoxyphenyl)-5-fluoropyridin-2-yl]methyl}pyridin-3-amine], for which the IC50 at Pim-2 is at most 100 nM; at Pim-1 it was below 10 nM; at Pim-3, at most 10 nM.
For the compound `C[C@@H]1C[C@H](N)CN(c2ccncc2NCc2ccc(F)c(-c3ccc(C#N)cc3F)n2)C1` [Example 84, 4-{6-[({4-[(3S,5R)-3-Amino-5-methylpiperidin-1-yl]pyridin-3-yl}amino)methyl]-3-fluoropyridin-2-yl}-3-fluorobenzonitrile], the IC50 at Pim-2 was 100 to 1000 nM; at Pim-1, below 10 nM; on Pim-3 it was at most 10 nM.
Consider `C[C@@H]1C[C@H](N)CN(c2ccncc2NCc2ccc(F)c(-c3ccc4sccc4c3)n2)C1` [Example 85, 4-[(3S,5R)-3-Amino-5-methylpiperidin-1-yl]-N-{[6-(1-benzothien-5-yl)-5-fluoropyridin-2-yl]methyl}pyridin-3-amine], for which the results for the IC50 on Pim-2, on Pim-1 and at Pim-3 were 100 to 1000 nM, below 10 nM and at most 10 nM, respectively.
For `C[C@@H]1C[C@H](N)CN(c2ccncc2NCc2ccc(F)c(-c3ccc4c(c3)NC(=O)C4)n2)C1` [Example 86, 6-{6-[({4-[(3S,5R)-3-Amino-5-methylpiperidin-1-yl]pyridin-3-yl}amino)methyl]-3-fluoropyridin-2-yl}-1,3-dihydro-2H-indol-2-one] the same measures were 100 to 1000 nM, below 10 nM and at most 10 nM.
As for `C[C@H]1CN(c2c(NCc3ccc(F)c(-c4c(F)cccc4F)n3)cnc3c2CCO3)C[C@@H](N)[C@@H]1O` [Example 88, (3R,4R,5S)-3-Amino-1-[5-({[6-(2,6-difluorophenyl)-5-fluoropyridin-2-yl]methyl}amino)-2,3-dihydrofuro[2,3-b]pyridin-4-yl]-5-methylpiperidin-4-ol], the results for the IC50 at Pim-2, on Pim-1 and on Pim-3 were 1000 to 10000 nM, below 10 nM and at most 10 nM, respectively.
`C[C@@H]1C[C@H](N)CN(c2c(NCc3ccc(F)c(-c4c(F)cccc4F)n3)cnc3c2CCC3)C1` [Example 89, 4-[(3S,5R)-3-Amino-5-methylpiperidin-1-yl]-N-{[6-(2,6-difluorophenyl)-5-fluoropyridin-2-yl]methyl}-6,7-dihydro-5H-cyclopenta[b]pyridin-3-amine]: the IC50 at Pim-2 is 100 to 1000 nM; on Pim-1, below 10 nM; at Pim-3, at most 10 nM.
Consider `N[C@@H]1CN(c2ccncc2NCc2ccc(F)c(-c3c(F)cccc3F)n2)CC[C@H]1F` [Example 90, 4-[(3R,4R)-3-Amino-4-fluoropiperidin-1-yl]-N-{[6-(2,6-difluorophenyl)-5-fluoropyridin-2-yl]methyl}pyridin-3-amine], for which the values for the IC50 at Pim-2, at Pim-1 and on Pim-3 were 1000 to 10000 nM, below 10 nM and at most 10 nM, respectively.
For `C[C@@H]1C[C@H](N)CN(c2ccncc2NCc2ccc3ccc(-c4ccc5c(c4)OCC5)cc3n2)C1` [Example 91, 4-[(3S,5R)-3-Amino-5-methylpiperidin-1-yl]-N-{[7-(2,3-dihydro-1-benzofuran-6-yl)quinolin-2-yl]methyl}pyridin-3-amine], the IC50 is 100 to 1000 nM at Pim-2, below 10 nM at Pim-1 and at most 10 nM on Pim-3.
For `C[C@@H]1C[C@H](N)CN(c2ccncc2NCc2ccc3ccc(-c4ccn5ccnc5c4)cc3n2)C1` [Example 92, 4-[(3S,5R)-3-Amino-5-methylpiperidin-1-yl]-N-[(7-imidazo[1,2-a]pyridin-7-ylquinolin-2-yl)methyl]pyridin-3-amine] the same measures were 100 to 1000 nM, below 10 nM and at most 10 nM.
With `C[C@H]1CN(c2ccncc2NCc2ccc3ccc(-c4ccn5ccnc5c4)cc3n2)C[C@@H](N)[C@@H]1O` [Example 93, (3R,4R,5S)-3-Amino-1-(3-{[(7-imidazo[1,2-a]pyridin-7-ylquinolin-2-yl)methyl]amino}pyridin-4-yl)-5-methylpiperidin-4-ol], the IC50 at Pim-2 was 100 to 1000 nM; on Pim-1, below 10 nM; at Pim-3, at most 10 nM.
On to `C[C@H]1CN(c2ccncc2NCc2ccc3occ(-c4c(F)cc(CO)cc4F)c3n2)C[C@@H](N)[C@@H]1O` [Example 96, (3R,4R,5S)-3-amino-1-(3-(((3-(2,6-difluoro-4-(hydroxymethyl)phenyl)furo[3,2-b]pyridin-5-yl)methyl)amino)pyridin-4-yl)-5-methylpiperidin-4-ol], for which the IC50 at Pim-2 was 100 to 1000 nM; at Pim-1, below 10 nM; at Pim-3 it was at most 10 nM.
Consider `C[C@H]1CN(c2ccncc2NCc2ccc3occ(-c4ccc(CO)cc4F)c3n2)C[C@@H](N)[C@@H]1O` [Example 97, (3R,4R,5S)-3-amino-1-(3-(((3-(2-fluoro-4-(hydroxymethyl)phenyl)furo[3,2-b]pyridin-5-yl)methyl)amino)pyridin-4-yl)-5-methylpiperidin-4-ol], for which the half-maximal inhibitory concentration (IC50) was 100 to 1000 nM on Pim-2, 10 to 50 nM at Pim-1 and at most 10 nM on Pim-3.
For `CC(C)c1coc2ccc(CNc3cnccc3N3C[C@H](C)C[C@H](N)C3)nc12` [Example 98, 4-[(3S,5R)-3-Amino-5-methylpiperidin-1-yl]-N-[(3-isopropylfuro[3,2-b]pyridin-5-yl)methyl]pyridin-3-amine], the results for the IC50 on Pim-2, on Pim-1 and at Pim-3 were 100 to 1000 nM, below 10 nM and at most 10 nM, respectively.
`C[C@@H]1C[C@H](N)CN(c2ccncc2NCc2ccc3occ(-c4c(F)cc(CO)cc4F)c3n2)C1` [Example 99, (4-(5-((4-((3S,5R)-3-amino-5-methylpiperidin-1-yl)pyridin-3-ylamino)methyl)furo[3,2-b]pyridin-3-yl)-3,5-difluorophenyl)methanol]: the IC50 is at most 100 nM on Pim-2, below 10 nM on Pim-1 and at most 10 nM on Pim-3.
